Assay results reported in US20120189677A1, “FORMULATIONS” (priority 2011, published 2012).
Like-named read-outs stand apart in the source and are kept apart here.

How the values were obtained:
[1] = Clarity of surfactant/lipid compositions with or without maltodextrin (Example 2); format: physicochemical; conditions: surfactant at % given in row, S-75 lipid, low temperature process; for Clarity with maltodextrin (2%): 2% maltodextrin; for Clarity without maltodextrin: no maltodextrin
[2] = Particle size analysis (FIG. 3); format: physicochemical; conditions: Brij35P 7.0% w/w, S-75 1% w/w, maltodextrin 2% w/w; 25:2 dilution
[3] = Turbidity of surfactant added to standard maltodextrin/lipid emulsion at room temperature (Example 1); format: physicochemical; conditions: surfactant 7% w/w in emulsion of 2% C* Dry MD 01958 maltodextrin and 1% S-75 lipid
[4] = approximate average of manufacturer and literature values; cited from earlier work
[5] = HLB values of surfactants (manufacturer/literature or equation); format: physicochemical; conditions: from HLB=20[1-(S/A)], S 45.5, A 276

| Substance | Turbidity (FNU) [3] [FNU] | HLB [4] | also measured |
| --- | --- | --- | --- |
| Laureth-23 [Brij 35P] | – | – | Clarity with maltodextrin (2%) [1]: 128.1 FNU; Clarity without maltodextrin [1]: 184 FNU; polydispersity [2]: 0.625; principal/dominant particle size [2]: 8.68 nm |
| Nonoxynol-9 | 8.87 | 12.9 | – |
| Nonoxynol-10 | 8.29 | 13.6 | – |
| Nonoxynol-40 | >150 | 17.8 | – |
| Octoxynol-5 | >150 | 10.4 | – |
| Octoxynol-9 | 7.75 | – | – |
| Octoxynol-12 | 4.32 | 14.5 | – |
| Octoxynol-16 | 7.55 | – | – |
| Octoxynol-30 | >150 | 17.1 | – |
| Octoxynol-40 | >150 | 17.9 | – |
| Polysorbate-20 [Polysorbate 20] | – | – | HLB [5]: 16.7; Clarity with maltodextrin (2%) [1]: 59.5 FNU; Clarity without maltodextrin [1]: 79.5 FNU |
